{
  "source": "patent US10874615B2",
  "about": "“Formulation having controlled, delayed release of active ingredient” (Merck Patent GmbH, priority 2015, dated 2020)",
  "origin": "cited, not measured here",
  "details": "after oral administration; first-pass metabolism",
  "data": [
    {"smiles": "CC(C)NCC(O)COc1cccc2ccccc12", "note": "(stereo not shown) [propranolol]", "values": [
      {"measurement": "bioavailability", "result": "25-30%"}
    ]}
  ]
}
